Test results published in US20110230493A1, “1-OXA-8-Azaspiro [4,5] Decabe-8-Carboxamide Compounds as FAAH Inhibitors” (Pfizer Inc., priority 2008, published 2011).

Experiments:
human FAAH = biological target: T1, human FAAH (Homo sapiens, UniProt O00519); assay: FAAH assay, human FAAH enzyme inactivation (kinact/Ki); assay type: biochemical; settings: pH 7.4, in vitro, oleamide 50 μM, 30° C., read-out: hFAAH kinact/Ki
T1 construct: made in house; host or cells: E. coli
T1 sequence (O00519 1-579): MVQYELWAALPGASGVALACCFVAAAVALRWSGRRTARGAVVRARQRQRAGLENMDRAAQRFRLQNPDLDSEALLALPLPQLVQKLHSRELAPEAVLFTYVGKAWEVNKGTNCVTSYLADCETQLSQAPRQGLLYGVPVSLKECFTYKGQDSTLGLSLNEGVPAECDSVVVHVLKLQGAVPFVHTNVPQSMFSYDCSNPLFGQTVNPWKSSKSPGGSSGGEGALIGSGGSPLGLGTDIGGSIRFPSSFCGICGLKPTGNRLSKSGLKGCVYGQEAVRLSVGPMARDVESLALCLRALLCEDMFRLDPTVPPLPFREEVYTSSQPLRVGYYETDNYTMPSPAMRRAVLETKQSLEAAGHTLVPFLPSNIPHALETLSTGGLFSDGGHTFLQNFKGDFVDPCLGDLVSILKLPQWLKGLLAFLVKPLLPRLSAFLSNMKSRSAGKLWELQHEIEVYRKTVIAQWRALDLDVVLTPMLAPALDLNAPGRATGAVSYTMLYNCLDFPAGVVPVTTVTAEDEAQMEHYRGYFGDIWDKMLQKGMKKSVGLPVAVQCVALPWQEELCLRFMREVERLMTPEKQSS
Protocol: (§1) The FAAH assay was carried out in 384-well clear polystyrene plates (Evergreen Scientific) in a total volume of 50 μl per well in a manner similar to that described by Mileni et al., Proc. Nat. Acad. Sci. 2008, 105, 12820-12824. All percents are by volume. Serial dilutions of compound were initially prepared in 100% DMSO, and then diluted two-fold into HPLC-grade H2O to give 50% DMSO. To each well, was placed the reaction mixture (40 μl) containing 1-4 nM FAAH, 50 mM NaPi, pH 7.4, 3 mM α-ketoglutarate, 0.15 mM NADH, 7.5 U/ml glutamate dehydrogenase, 2 mM ADP, 1 mM EDTA, and 0.1% Triton X-100 (The concentration shown for each component is the final concentration in the assay). To this mixture, was added 5 μl of a compound of Examples 1 to 101 at various concentrations in 50% DMSO (or 5 μl 50% DMSO for controls). This was immediately followed by the addition of 5 μl oleamide (500 μM) dissolved in 75% EtOH/25% DMSO and the reaction mixture was mixed for 1.5 min. The final concentrations of DMSO and EtOH in the assay were each 7.5%. The reactions were incubated at 30° C. and the absorbance at 340 nm was collected over a period of 90 min with readings taken in 30-second intervals using SpectraMax Plus^384 Microplate Spectrophotometer (Molecular Devices, Sunnyvale, Calif.). The human FAAH and rat FAAH used in the assay was prepared as described in the patent application WO 2006/067613 using wild-type E. coli cells transformed in St. Louis, Mo., U.S.A. The purity of the enzyme was greater than 98% based on an analysis by SDS-polyacrylamide gel electrophoresis followed by Coomassie Blue staining.
(§2) Reaction progress curves were corrected for the non-enzymatic oxidation of NADH by subtraction of absorbancies at each time point obtained from control reactions containing no FAAH enzyme. The loss of enzyme activity as a function of time is well-described by the following mathematical equation (1) for a mono-exponential decay: […]
(§3) where At represents the absorbance at time t, A0 represents the absorbance at time zero, and C represents a constant. Observed rates of enzyme inactivation (kobs) were determined from the non-linear reaction progress curves by fitting the corrected absorbancies to an equation for a mono-exponential decay using the third-party Microsoft Excel plug-in, XLfit (IDBS Limited). Secondary plots of kobs vs. inhibitor concentration were prepared from kobs values obtained from progress curves. Second-order rates for enzyme inactivation, expressed as kinact/Ki (M^−1 s^−1), were calculated from the slopes from linear regression analysis of the secondary plot of kobs vs. inhibitor concentration as defined in following equation (2), where [I]<<Ki:
(§4) The concentration of substrate in the assay was equal to the Km for oleamide of 50 μM. Therefore, reported kinact/Ki values are obtained by multiplying resulting slopes by a factor of two (i.e. slope=kinact/(Ki*2)).
(§5) Table 1, below, lists human FAAH (hFAAH) and rat FAAH (rFAAH) enzyme inhibition values for Examples 1-101 as a ratio of kinact/Ki (M^−1 s^−1).

rat FAAH = biological target: T2, rat FAAH (Rattus norvegicus, UniProt P97612); assay: FAAH assay, rat FAAH enzyme inactivation (kinact/Ki); assay type: biochemical; settings: pH 7.4, in vitro, oleamide 50 μM, 30° C., read-out: rFAAH kinact/Ki
T2 construct: made in house; host or cells: E. coli
T2 sequence (P97612 1-579): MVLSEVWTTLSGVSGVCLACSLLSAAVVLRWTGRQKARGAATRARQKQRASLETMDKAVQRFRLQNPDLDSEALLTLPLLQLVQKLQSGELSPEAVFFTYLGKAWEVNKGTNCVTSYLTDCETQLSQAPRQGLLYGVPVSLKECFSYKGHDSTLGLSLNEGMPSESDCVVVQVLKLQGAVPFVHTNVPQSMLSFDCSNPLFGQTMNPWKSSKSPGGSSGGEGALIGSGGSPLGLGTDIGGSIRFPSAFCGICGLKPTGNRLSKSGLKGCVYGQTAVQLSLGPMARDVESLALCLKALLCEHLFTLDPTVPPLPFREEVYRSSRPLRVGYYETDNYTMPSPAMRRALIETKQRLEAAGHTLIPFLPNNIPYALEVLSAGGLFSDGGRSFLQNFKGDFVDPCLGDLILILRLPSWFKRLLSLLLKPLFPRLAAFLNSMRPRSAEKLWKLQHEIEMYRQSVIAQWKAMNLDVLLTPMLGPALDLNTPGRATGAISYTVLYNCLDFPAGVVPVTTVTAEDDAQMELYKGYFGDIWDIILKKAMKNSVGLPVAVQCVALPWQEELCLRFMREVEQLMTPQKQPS
Protocol: as §1, §2, §3, §4, §5

Row | kinact/KI (human FAAH) | kinact/KI (rat FAAH) | SMILES
1 | 3580 M⁻¹ s⁻¹ | 3220 M⁻¹ s⁻¹ | Cc1noc(NC(=O)N2CCC3(CC2)CC(c2ccc(OCc4cc(F)ccc4F)cc2)CO3)c1C (racemic) [Example 31, (3RS)-3-{4-[(2,5-difluorobenzyl)oxy]phenyl}-N-(3,4-dimethylisoxazol-5-yl)-1-oxa-8-azaspiro[4.5]decane-8-carboxamide]
2 | 6950 M⁻¹ s⁻¹ | 10900 M⁻¹ s⁻¹ | Cc1noc(NC(=O)N2CCC3(CC2)CC(c2ccc(OCc4ccc(Cl)cc4)cc2)CO3)c1C (racemic) [Example 23, (3RS)-3-{4-[(4-chlorobenzyl)oxy]phenyl}-N-(3,4-dimethylisoxazol-5-yl)-1-oxa-8-azaspiro[4.5]decane-8-carboxamide]
3 | 5240 M⁻¹ s⁻¹ | 3120 M⁻¹ s⁻¹ | Cn1nnnc1NC(=O)N1CCC2(CC1)CC(c1cccc(C(F)(F)F)c1)CO2 (racemic) [Example 92]
4 | 7380 M⁻¹ s⁻¹ | 5800 M⁻¹ s⁻¹ | Cc1noc(NC(=O)N2CCC3(CC2)CC(c2ccc(OCc4ccc(F)c(F)c4)cc2)CO3)c1C (racemic) [Example 30, (3RS)-3-{4-[(3,4-difluorobenzyl)oxy]phenyl}-N-(3,4-dimethylisoxazol-5-yl)-1-oxa-8-azaspiro[4.5]decane-8-carboxamide]
5 | 3100 M⁻¹ s⁻¹ | 3550 M⁻¹ s⁻¹ | Cc1noc(NC(=O)N2CCC3(CC2)CC(c2ccc(OCc4cccc(Cl)c4)c(Cl)c2)CO3)c1C (racemic) [Example 21, (3RS)-3-{3-chloro-4-[(3-chlorobenzyl)oxy]phenyl}-N-(3,4-dimethylisoxazol-5-yl)-1-oxa-8-azaspiro[4.5]decane-8-carboxamide]
6 | 6030 M⁻¹ s⁻¹ | 3630 M⁻¹ s⁻¹ | Cc1noc(NC(=O)N2CCC3(CC2)CC(c2ccc(OCc4cccc(F)c4)cc2)CO3)c1C (racemic) [Example 22, (3RS)-N-(3,4-dimethylisoxazol-5-yl)-3-{4-[(3-fluorobenzyl)oxy]phenyl}-1-oxa-8-azaspiro[4.5]decane-8-carboxamide]
7 | 2820 M⁻¹ s⁻¹ | 1630 M⁻¹ s⁻¹ | Cc1noc(NC(=O)N2CCC3(CC2)C[C@H](c2cccc(-c4ccc(C(F)(F)F)cn4)c2)CO3)c1C [Example 98, (3R)—N-(3,4-dimethylisoxazol-5-yl)-3-{3-[5-(trifluoromethyl)pyridin-2-yl]phenyl}-1-oxa-8-azaspiro[4.5]decane-8-carboxamide]
8 | 2140 M⁻¹ s⁻¹ | 2920 M⁻¹ s⁻¹ | Cc1noc(NC(=O)N2CCC3(CC2)CC(c2cccc(C(F)(F)F)c2)CO3)c1C (single isomer, unassigned) [Example 66, N-(3,4-dimethylisoxazol-5-yl)-3-[3-(trifluoromethyl)phenyl]-1-oxa-8-azaspiro[4.5]decane-8-carboxamide]
9 | 2610 M⁻¹ s⁻¹ | 1020 M⁻¹ s⁻¹ | Cc1noc(NC(=O)N2CCC3(CC2)CC(c2noc(-c4ccc(OC(F)(F)F)cc4)n2)CO3)c1C (racemic) [Example 71, (3RS)—N-(3,4-dimethylisoxazol-5-yl)-3-{5-[4-(trifluoromethoxy)phenyl]-1,2,4-oxadiazol-3-yl}-1-oxa-8-azaspiro[4.5]decane-8-carboxamide]
10 | 2320 M⁻¹ s⁻¹ | 1750 M⁻¹ s⁻¹ | O=C(Nc1cccnc1)N1CCC2(CC1)CC(c1cccc(Oc3ccc(Br)cn3)c1)CO2 (racemic) [Example 6, (3RS)-3-{3-[(5-bromopyridin-2-yl)oxy]phenyl}-N-pyridin-3-yl-1-oxa-8-azaspiro[4.5]decane-8-carboxamide]
11 | 1100 M⁻¹ s⁻¹ | 2630 M⁻¹ s⁻¹ | Cc1noc(NC(=O)N2CCC3(CC2)CC(c2cccc(C(F)(F)F)c2)CO3)c1C (racemic) [Example 65, (3RS)—N-(3,4-dimethylisoxazol-5-yl)-3-[3-(trifluoromethyl)phenyl]-1-oxa-8-azaspiro[4.5]decane-8-carboxamide]
12 | 2070 M⁻¹ s⁻¹ | 1160 M⁻¹ s⁻¹ | Cc1noc(NC(=O)N2CCC3(CC2)CC(c2cccc(-c4ccc(Cl)cc4)c2)CO3)c1C (racemic) [Example 55, (3RS)-3-(4′-chlorobiphenyl-3-yl)-N-(3,4-dimethylisoxazol-5-yl)-1-oxa-8-azaspiro[4.5]decane-8-carboxamide]
13 | 960 M⁻¹ s⁻¹ | 4880 M⁻¹ s⁻¹ | CCCc1noc(NC(=O)N2CCC3(CC2)CC(c2ccc(Cl)c(Cl)c2)CO3)c1C (single isomer, unassigned) [Example 69, 3-(3,4-dichlorophenyl)-N-(3-n-propyl-4-methylisoxazol-5-yl)-1-oxa-8-azaspiro[4.5]decane-8-carboxamide]
14 | 2090 M⁻¹ s⁻¹ | 2240 M⁻¹ s⁻¹ | Cc1noc(NC(=O)N2CCC3(CC2)CC(c2ccc4ccccc4c2)CO3)c1C (racemic) [Example 25, (3RS)-N-(3,4-dimethylisoxazol-5-yl)-3-(2-naphthyl)-1-oxa-8-azaspiro[4.5]decane-8-carboxamide]
15 | 2430 M⁻¹ s⁻¹ | 4360 M⁻¹ s⁻¹ | Cc1noc(NC(=O)N2CCC3(CC2)CC(c2ccc(Cl)c(Cl)c2)CO3)c1C (racemic) [Example 15, (3RS)-3-(3,4-dichlorophenyl)-N-(3,4-dimethylisoxazol-5-yl)-1-oxa-8-azaspiro[4.5]decane-8-carboxamide]
16 | 2110 M⁻¹ s⁻¹ | 3230 M⁻¹ s⁻¹ | Cc1noc(NC(=O)N2CCC3(CC2)CC(c2ccc(OCc4cccc(C(F)(F)F)n4)cc2)CO3)c1C (racemic) [Example 29, (3RS)-N-(3,4-dimethylisoxazol-5-yl)-3-(4-{[6-(trifluoromethyl)pyridin-2-yl]methoxy}phenyl)-1-oxa-8-azaspiro[4.5]decane-8-carboxamide]
17 | 871 M⁻¹ s⁻¹ | 1120 M⁻¹ s⁻¹ | Cc1noc(NC(=O)N2CCC3(CC2)CC(F)(c2cc(F)cc(Cl)c2)CO3)c1C (racemic) [Example 100, (3RS)-3-(3-chloro-5-fluorophenyl)-N-(3,4-dimethylisoxazol-5-yl)-3-fluoro-1-oxa-8-azaspiro[4.5]decane-8-carboxamide]
18 | 1780 M⁻¹ s⁻¹ | 8330 M⁻¹ s⁻¹ | O=C(Nc1noc2ccccc12)N1CCC2(CC1)CC(c1cccc(Oc3ccc(Cl)cn3)c1)CO2 (racemic) [Example 101, (3RS)—N-1,2-benzisoxazol-3-yl-3-{3-[(5-chloropyridin-2-yl)oxy]phenyl}-1-oxa-8-azaspiro[4.5]decane-8-carboxamide]
